Laboratory results taken from the NIST ThermoML archive (doi:10.1021/je800110r).
Numbers after ± are expanded uncertainties.

Settings: 303.16 K, Liquid, Vibrating tube method

CCCCCCCCCC [decane]
Settings	mass density [kg/m3]
17693 kPa	735.8 ± 2
17724 kPa	735.9 ± 2
17745 kPa	735.8 ± 2
17773 kPa	735.9 ± 2
17801 kPa	735.9 ± 2
17825 kPa	735.9 ± 2
17850 kPa	735.9 ± 2
17878 kPa	735.9 ± 2
17909 kPa	736 ± 2
17931 kPa	735.9 ± 2
17959 kPa	736 ± 2
17977 kPa	736.1 ± 2
18013 kPa	736 ± 2
18041 kPa	736.1 ± 2
18063 kPa	736.1 ± 2
18092 kPa	736.1 ± 2
18122 kPa	736 ± 2
18144 kPa	736.1 ± 2
18169 kPa	736.2 ± 2
18195 kPa	736.2 ± 2
18227 kPa	736.2 ± 2
18253 kPa	736.1 ± 2
18275 kPa	736.3 ± 2
18304 kPa	736.2 ± 2
18334 kPa	736.3 ± 2
18356 kPa	736.2 ± 2
18390 kPa	736.2 ± 2
18413 kPa	736.4 ± 2
18436 kPa	736.4 ± 2
18466 kPa	736.3 ± 2
18489 kPa	736.3 ± 2
18523 kPa	736.4 ± 2
18546 kPa	736.4 ± 2
18569 kPa	736.4 ± 2
18595 kPa	736.4 ± 2
18614 kPa	736.5 ± 2
18641 kPa	736.5 ± 2
18664 kPa	736.5 ± 2
18699 kPa	736.5 ± 2
18738 kPa	736.5 ± 2
18762 kPa	736.5 ± 2
18789 kPa	736.5 ± 2
18820 kPa	736.6 ± 2
18843 kPa	736.6 ± 2
18883 kPa	736.7 ± 2
18914 kPa	736.5 ± 2
18938 kPa	736.8 ± 2
18962 kPa	736.7 ± 2
18998 kPa	736.7 ± 2
19031 kPa	736.7 ± 2
19060 kPa	736.7 ± 2
19085 kPa	736.7 ± 2
19122 kPa	736.9 ± 2
19159 kPa	736.8 ± 2
19184 kPa	736.8 ± 2
19223 kPa	736.9 ± 2
19247 kPa	736.9 ± 2
19269 kPa	736.8 ± 2
19302 kPa	736.9 ± 2
19335 kPa	737 ± 2
19360 kPa	737 ± 2
19383 kPa	737 ± 2
19412 kPa	737 ± 2
19434 kPa	737 ± 2
19456 kPa	737 ± 2
19477 kPa	736.9 ± 2
19498 kPa	737.1 ± 2
19522 kPa	737.1 ± 2
19544 kPa	737.2 ± 2
19566 kPa	737.2 ± 2
19587 kPa	737.1 ± 2
19612 kPa	737 ± 2
19634 kPa	737.2 ± 2
19656 kPa	737.1 ± 2
19678 kPa	737.2 ± 2
19703 kPa	737.3 ± 2
19725 kPa	737.3 ± 2
19748 kPa	737.3 ± 2
19771 kPa	737.2 ± 2
19794 kPa	737.2 ± 2
19817 kPa	737.2 ± 2
19841 kPa	737.2 ± 2
19862 kPa	737.2 ± 2
19880 kPa	737.3 ± 2
19906 kPa	737.3 ± 2
19925 kPa	737.4 ± 2
19938 kPa	737.4 ± 2
19956 kPa	737.4 ± 2
19976 kPa	737.4 ± 2
19997 kPa	737.4 ± 2
20013 kPa	737.5 ± 2
20034 kPa	737.3 ± 2
20052 kPa	737.5 ± 2
20073 kPa	737.5 ± 2
20089 kPa	737.5 ± 2
20104 kPa	737.4 ± 2
20123 kPa	737.5 ± 2
20143 kPa	737.6 ± 2
20164 kPa	737.5 ± 2
20180 kPa	737.6 ± 2
20201 kPa	737.5 ± 2
20222 kPa	737.6 ± 2
20238 kPa	737.6 ± 2
20259 kPa	737.6 ± 2
20280 kPa	737.6 ± 2
20293 kPa	737.7 ± 2
20307 kPa	737.6 ± 2
20323 kPa	737.7 ± 2
20347 kPa	737.7 ± 2
20369 kPa	737.7 ± 2
20396 kPa	737.7 ± 2
20420 kPa	737.6 ± 2
20439 kPa	737.7 ± 2
20461 kPa	737.7 ± 2
20477 kPa	737.6 ± 2
20501 kPa	737.8 ± 2
20529 kPa	737.7 ± 2
20545 kPa	737.7 ± 2
20567 kPa	737.8 ± 2
20586 kPa	737.9 ± 2
20606 kPa	737.8 ± 2
20625 kPa	737.8 ± 2
20650 kPa	737.9 ± 2
20667 kPa	737.9 ± 2
20683 kPa	737.9 ± 2
20706 kPa	738 ± 2
20728 kPa	737.9 ± 2
20745 kPa	738 ± 2
20764 kPa	738 ± 2
20787 kPa	738.1 ± 2
20810 kPa	738 ± 2
20827 kPa	738 ± 2
20846 kPa	738 ± 2
20863 kPa	738 ± 2
20880 kPa	738 ± 2
20897 kPa	738 ± 2
20911 kPa	738.1 ± 2
